Experimental data published in US20250346600A1, “TRICYCLIC DERIVATIVES AND RELATED USES” (MOMA Therapeutics, Inc., priority 2023, published 2025).

Legend:
[1] = target: T1, Full length WRN protein (aa 2-1432) (Homo sapiens (Human), UniProt Q14191); test: WRN ATPase ADP-Glo biochemical assay, Assay Format A (10 μM ATP); details: 0.25 nM WRN, 100 nM C6.18 ssDNA, 30 min preincubation, read-out: ATPase ADPGlo AC50 (uM)- Assay Format A
In short: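 Sf9-expressed FLAG-AVI-TEV-tagged WRN (0.5 nM) preincubated 30 min with compound (11-point 3-fold dilution). Reaction started with 200 nM C6.18 39-mer ssDNA and 20 μM ATP (addition concentrations), run 30 min at room temperature. ADP measured by ADP-Glo luminescence; IC50 from four-parameter fit, geometric mean of ≥2 runs.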

[2] = target: T1, Full length WRN protein (aa 2-1432); test: WRN ATPase ADP-Glo biochemical assay, Assay Format B (100 μM ATP); details: 0.25 nM WRN, 100 nM C6.18 ssDNA, 60 min preincubation, read-out: ATPase ADPGlo AC50 (uM)- Assay Format B
[3] = tested on: HT29 cells; test: HT29 (MSS) 7 day viability, CellTiter Glo; format: cell-based; details: Homo sapiens, HT-29, 168 h, 7 days, read-out: HT29 (MSS) Viability 7 Day CTGAbs AC50
In short: (§1)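 Seven-day viability is assessed with CellTiter Glo after compounds, diluted in ten 3-fold steps in DMSO, are exposed to HCT116 (50 cells/well) or HT29 (500 cells/well). Reported IC50 is the geometric mean of at least two independent runs.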

[4] = tested on: HCT116 cells; test: HCT116 (MSI) 7 day viability, CellTiter Glo; format: cell-based; details: Homo sapiens, HCT-116, 168 h, 7 days, read-out: HCT116 (MSI) Viability 7 Day Abs AC50
In short: as §1

T1 sequence (Q14191 2-1432): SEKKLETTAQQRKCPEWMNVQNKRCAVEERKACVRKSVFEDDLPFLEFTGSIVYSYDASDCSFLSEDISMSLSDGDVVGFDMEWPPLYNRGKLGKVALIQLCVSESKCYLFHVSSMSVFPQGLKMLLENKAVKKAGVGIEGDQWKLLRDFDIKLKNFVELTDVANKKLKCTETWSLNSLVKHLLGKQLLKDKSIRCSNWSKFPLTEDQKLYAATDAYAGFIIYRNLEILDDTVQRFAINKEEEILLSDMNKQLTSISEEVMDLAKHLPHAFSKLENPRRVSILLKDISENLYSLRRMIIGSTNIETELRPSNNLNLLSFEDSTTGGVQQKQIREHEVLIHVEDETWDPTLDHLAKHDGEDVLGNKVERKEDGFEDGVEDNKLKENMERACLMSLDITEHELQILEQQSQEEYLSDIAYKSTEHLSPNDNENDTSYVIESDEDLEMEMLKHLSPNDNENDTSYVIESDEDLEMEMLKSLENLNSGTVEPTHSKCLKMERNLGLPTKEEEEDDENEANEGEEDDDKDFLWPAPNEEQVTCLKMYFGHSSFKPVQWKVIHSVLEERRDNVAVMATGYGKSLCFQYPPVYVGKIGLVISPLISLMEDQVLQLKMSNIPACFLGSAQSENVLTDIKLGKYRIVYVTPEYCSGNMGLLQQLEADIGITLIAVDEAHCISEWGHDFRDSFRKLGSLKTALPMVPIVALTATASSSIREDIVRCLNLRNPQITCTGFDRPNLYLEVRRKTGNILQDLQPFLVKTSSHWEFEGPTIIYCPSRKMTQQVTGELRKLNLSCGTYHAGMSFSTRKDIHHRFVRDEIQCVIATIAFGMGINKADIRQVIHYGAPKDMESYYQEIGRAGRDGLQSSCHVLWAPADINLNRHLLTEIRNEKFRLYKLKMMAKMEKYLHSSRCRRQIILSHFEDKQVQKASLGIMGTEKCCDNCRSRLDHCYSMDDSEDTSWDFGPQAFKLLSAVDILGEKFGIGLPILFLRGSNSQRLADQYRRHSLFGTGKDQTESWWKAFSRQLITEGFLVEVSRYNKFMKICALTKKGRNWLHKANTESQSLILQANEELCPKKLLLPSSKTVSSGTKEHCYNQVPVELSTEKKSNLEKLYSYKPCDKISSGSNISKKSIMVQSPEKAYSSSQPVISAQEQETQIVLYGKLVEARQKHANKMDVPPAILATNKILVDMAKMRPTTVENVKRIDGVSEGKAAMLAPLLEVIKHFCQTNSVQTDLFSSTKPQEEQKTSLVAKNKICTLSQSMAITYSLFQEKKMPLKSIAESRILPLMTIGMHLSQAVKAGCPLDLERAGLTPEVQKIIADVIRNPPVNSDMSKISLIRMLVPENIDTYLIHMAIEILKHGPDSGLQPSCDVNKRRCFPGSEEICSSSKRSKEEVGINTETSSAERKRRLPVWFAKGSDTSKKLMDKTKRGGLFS

AC50 [1] [µM] | AC50 [2] [µM] | SMILES | AC50 [3] [nM] | AC50 [4] [nM]
< 0.0015 | 0.005 to 0.015 | C=CC(=O)N1CCc2nn(-c3ccc(C4CCC4)cc3O)c3c2C(C1)N(C(=O)c1cnc(C(F)(F)F)cc1O)CC3 (centres unmarked) [Compound 149, 1-(2-(4-cyclobutyl-2-hydroxyphenyl)-5-(4-hydroxy-6-(trifluoromethyl)nicotinoyl)-2,3,4,5,5a,6,8,9-octahydro-7H-1,2,5,7-tetraazabenzo[cd]azulen-7-yl)prop-2-en-1-one] | > 3000 | 250 to 500
> 0.055 | > 0.055 | CS(=O)(=O)/C=C/CN1CCc2nn(-c3ccc(C4CC4)cc3O)c3c2C(C1)N(C(=O)c1cnc(C(F)(F)F)cc1N)CC3 (centres unmarked) [Compound 257, (4-amino-6-(trifluoromethyl)pyridin-3-yl)(2-(4-cyclopropyl-2-hydroxyphenyl)-7-(3-(methylsulfonyl)allyl)-3,4,6,7,8,9-hexahydro-2H-1,2,5,7-tetraazabenzo[cd]azulen-5(5aH)-yl)methanone] | > 3000 | > 1000
< 0.0015 | 0.0015 to 0.005 | C=CC(=O)N1CCc2nn(-c3ccc(C4CCC4)cc3C)c3c2C(C1)N(C(=O)c1cnc(C(F)(F)F)cc1N)CC3 (centres unmarked) [Compound 240, 1-(5-(4-amino-6-(trifluoromethyl)nicotinoyl)-2-(4-cyclobutyl-2-methylphenyl)-2,3,4,5,5a,6,8,9-octahydro-7H-1,2,5,7-tetraazabenzo[cd]azulen-7-yl)prop-2-en-1-one] | > 3000 | 1 to 100
< 0.0015 | 0.015 to 0.055 | C=CC(=O)N1CCc2nn(-c3ccc(C4CCC4)cc3O)c3c2C(C1)N(C(=O)c1ncc(C(F)(F)F)cc1N)CC3 (centres unmarked) [Compound 142, 1-(5-(3-amino-5-(trifluoromethyl)picolinoyl)-2-(4-cyclobutyl-2-hydroxyphenyl)-2,3,4,5,5a,6,8,9-octahydro-7H-1,2,5,7-tetraazabenzo[cd]azulen-7-yl)prop-2-en-1-one] | > 3000 | 1 to 100
< 0.0015 | 0.0015 to 0.005 | C=CC(=O)N1CC(OC)c2nn(-c3ccc(C4CCC4)cc3)c3c2C(C1)N(C(=O)c1ccc(Br)c2[nH]cnc12)CC3 (centres unmarked) [Compound 27, 1-(5-(7-bromo-1H-benzo[d]imidazole-4-carbonyl)-2-(4-cyclobutylphenyl)-9-methoxy-2,3,4,5,5a,6,8,9-octahydro-7H-1,2,5,7-tetraazabenzo[cd]azulen-7-yl)prop-2-en-1-one] | > 3000 | 1 to 100
< 0.0015 | 0.005 to 0.015 | C=CC(=O)N1CCc2nn(-c3ccc(C4CC4)cc3)c3c2C(C1)N(C(=O)c1cnc(Br)cc1N)CC3 (centres unmarked) [Compound 166, 1-(5-(4-amino-6-bromonicotinoyl)-2-(4-cyclopropylphenyl)-2,3,4,5,5a,6,8,9-octahydro-7H-1,2,5,7-tetraazabenzo[cd]azulen-7-yl)prop-2-en-1-one] | > 3000 | 1 to 100
0.0015 to 0.005 | 0.005 to 0.015 | C=CC(=O)N1CCc2nn(-c3ccc(C4CC4)cc3O)c3c2C(C1)N(C(=O)c1cnc(C(F)(F)F)c(F)c1N)CC3 (centres unmarked) [Compound 194, 1-(5-(4-amino-5-fluoro-6-(trifluoromethyl)nicotinoyl)-2-(4-cyclopropyl-2-hydroxyphenyl)-2,3,4,5,5a,6,8,9-octahydro-7H-1,2,5,7-tetraazabenzo[cd]azulen-7-yl)prop-2-en-1-one] | > 3000 | 1 to 100
0.0015 to 0.005 | 0.005 to 0.015 | C=CC(=O)N1CCc2nn(-c3ccc(C4CC4)cc3O)c3c2C(C1)N(C(=O)c1cnc(OC(F)(F)F)c(F)c1N)CC3 (centres unmarked) [Compound 247, 1-(5-(4-amino-5-fluoro-6-(trifluoromethoxy)nicotinoyl)-2-(4-cyclopropyl-2-hydroxyphenyl)-2,3,4,5,5a,6,8,9-octahydro-7H-1,2,5,7-tetraazabenzo[cd]azulen-7-yl)prop-2-en-1-one] | > 3000 | 1 to 100
